From patent publication US20130039956A1, “USE OF NITROCARBOXYLIC ACIDS FOR THE TREATMENT, DIAGNOSIS AND PROPHYLAXIS OF AGGRESSIVE HEALING PATTERNS” (priority 2010, published 2013)

Assays:
[1] = test system: pericardial strips; test: Cold induced injury in a whole tissue ex-vivo model (pericardium); type: cell-based, Wistar rats; settings: control sample incubated with all-caspase inhibitor before cold
Text: To determine whether nitrated fatty acids can be used to preserve cells and tissues from cold or cryoinjury, an in vitro model utilizing murine epicardium was established. The experimental set-up should reduce the possibility of ischemia or reperfusion injury to a minimum, but at the same time allow differentiation of the contribution of ischemia/reperfusion injury-triggered cell death, which is known to occur almost exclusively via apoptosis, whereas cell death induced by cold injury almost exclusively results in necrosis.
The pericardial sac was carefully resected in 24 anesthetized Wistar rats (180-270 g) of either sex. Care was taken to grasp the pericardium with a forceps only at the cutting edges and reduce traumatization of the central portions of the pericardium to a minimum. After resection, the cutting edge and the former apex area of the pericardium were dissected, as to obtain flat tissue strips which were placed immediately in the culture medium (DMEM) containing 10% FCS and antibiotics (penicillin, streptomycin). Tissue samples were cultured in an oxygen atmosphere at 18° C. for 2 days. […] Then the pericardial strips were cut into 4 pieces of equal size. One piece was further cultivated at 37° C. without undergoing the cooling cycles, thus, serving as the control. In each of three investigations, one piece was bathed in a solution (0.9% saline and 1% SDS) containing 200 μmol nitro-fatty acid or contained 200 μmol of the corresponding native fatty acid, for 10 min at a temperature of 18° C. One piece of pericardium was bathed in a solution without fatty acids under otherwise identical conditions. All samples were cooled by continuously decreasing from ambient temperature at a rate of 3° C./min to a minimum temperature of […]. After 1 hour, the samples were rewarmed at a rate of 3° C./min by continuously increasing the temperature until a temperature of 18° C., was achieved. Thereafter an identical cooling and rewarming cycle was performed. After the second cooling cycle, the tissue pieces were further cultured in the culture medium for 1 day allowing continuous adaptation to an ambient temperature of 37° C. For analytical preparations the pericardial pieces were out and further processed. A direct TUNEL assay (Roche) was use for quantification of apoptosis, an annexin V/propidium iodide exclusion assay (Roche) was used to quantify the number of necrotic cells, and viability was determined by the WST-8 assay. Furthermore, the LDH release was quantified in the supernatants.
To rule out that cell death has been induced by ischemia or reperfusion (reoxygenation), in one series of experiments, a control sample was incubated with an all-caspase inhibitor (Q-VD-OPH, BioVision, USA) reconstituted in DMSO before the sample was exposed to cold.

[2] = target: T1, TRPV-1 (Mus musculus, UniProt Q704Y3); test: Signal transduction of receptors of the TRP-protein family in retinal slices; type: cell-based, mice; settings: preincubation (5 minutes) of TRPV-1 antagonist, saline specimens
T1 construct: Whole retinas were isolated and cut into 100 μm slices using a tissue slicer; from tissue; host or cells: mouse retinal slices (100 μm)
Protocol: In order to determine the effect of nitrated fatty acids on receptor signal transduction, an in vitro model was used. Retinal slices from cadaver mice were prepared as described by Snellman and Nawy (Snellman J. Nawy S (2004). cGMP-dependent kinase regulates response sensitivity of the mouse on bipolar cell. J Neurosci 24:6621-6628). Whole retinas were isolated and cut into 100 μm slices using a tissue slicer and than transferred to the recording chamber. The chamber was continuously perfused with Ames media and oxygenated. Picrotoxin (100 μM), strychnine (10 μM), and TPMPA (50 μM) were added. Each nitro fatty acid was added in two experiments to achieve a final concentration of 10 μmol, and in another two experiments to achieve a final concentration of 50 μmol. In two experiments, the corresponding native fatty acid was added to achieve a final concentration of 10 and 50 μmol, and in two experiments saline solution was added which served as controls. Currents were measured via tissue electrodes and monitored throughout the investigation. After incubating the solution for 2 hours, the TRPV-1 agonist capsaicin was added to achieve a final concentration of 10 μmol. Experiments were performed using either 10 mmol Hepes or 10 mmol Mes adjusting the pH of the solution to 6.4 or 4.4, respectively. Furthermore, experiments were performed without or with preincubation (5 minutes) of the TRPV-1 antagonist capsazepine. The solution temperature was held constant at 35° C.

T1 sequence (Q704Y3 whole entry): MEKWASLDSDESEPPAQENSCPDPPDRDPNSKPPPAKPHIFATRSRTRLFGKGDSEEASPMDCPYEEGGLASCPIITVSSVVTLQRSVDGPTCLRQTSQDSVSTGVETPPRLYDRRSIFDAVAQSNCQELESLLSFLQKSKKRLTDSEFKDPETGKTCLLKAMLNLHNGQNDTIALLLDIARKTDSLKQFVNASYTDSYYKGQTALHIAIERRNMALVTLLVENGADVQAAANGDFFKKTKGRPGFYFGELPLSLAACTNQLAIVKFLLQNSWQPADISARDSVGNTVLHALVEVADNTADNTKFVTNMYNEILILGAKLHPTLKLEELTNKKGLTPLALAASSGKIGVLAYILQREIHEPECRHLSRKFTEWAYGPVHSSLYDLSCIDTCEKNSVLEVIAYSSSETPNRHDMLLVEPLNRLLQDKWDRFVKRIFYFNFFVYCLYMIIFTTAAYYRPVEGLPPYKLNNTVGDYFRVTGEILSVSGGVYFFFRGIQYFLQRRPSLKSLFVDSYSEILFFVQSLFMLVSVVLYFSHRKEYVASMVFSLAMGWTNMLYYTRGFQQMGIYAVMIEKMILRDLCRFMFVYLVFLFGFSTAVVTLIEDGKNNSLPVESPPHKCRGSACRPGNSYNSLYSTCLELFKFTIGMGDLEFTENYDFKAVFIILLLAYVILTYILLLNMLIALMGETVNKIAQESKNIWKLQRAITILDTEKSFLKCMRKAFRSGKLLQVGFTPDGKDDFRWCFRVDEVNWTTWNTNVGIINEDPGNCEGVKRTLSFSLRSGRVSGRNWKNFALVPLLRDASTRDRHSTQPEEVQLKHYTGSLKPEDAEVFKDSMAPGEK

SMILES	rate of cells undergoing apoptosis [1]	capsaicin effect (induced current) [2]
CC(C)[C@H](NC(=O)c1ccc2ccccc2n1)C(=O)N[C@@H](CC(=O)O)C(=O)COc1c(F)cccc1F [Q-VD-OPH, reference compound]	within the range found in the cold-exposed control samples	–
Oc1cc2c(cc1O)CN(C(=S)NCCc1ccc(Cl)cc1)CCC2 [capsazepine, reference compound]	–	inhibited
